Melting point data for 112 molecules are collected here from a melting point compilation (Tetko et al.).

Structures are written as SMILES. Some results are limits rather than exact numbers.

The melting point is the temperature, or range, at which the solid turns liquid. For `COc1cc(C2c3cc4c(cc3C(OC3OC5COC(c6cccs6)OC5C(O)C3O)C3COC(=O)C23)OCO4)cc(OC)c1O` (configuration not stated), the melting point was found to be 244 °C. For the molecule `ClCc1nnc(-c2ccc(Cl)cc2)o1`, the melting point is 81 to 85 °C.

Turning to `O=CC=Cc1ccccc1[N+](=O)[O-]`, the melting point was 125 to 129 °C.

Regarding `CC(=O)OCC(OC(C)=O)C(OC(C)=O)C(OC(C)=O)C(OC(C)=O)C(OC(C)=O)OC(C)=O` (configuration not stated), the melting point turned out to be 119 °C. `O=[N+]([O-])c1cccc2ncccc12` yielded a melting point of 74 °C. As to `COC(=O)c1cc(Cl)ccc1Br`, the melting point is 39 °C.

In the case of `CC(C)(C)OC(=O)N1CCC(C(=O)c2ccc(F)cc2)CC1`, the melting point was 89 to 91 °C. In turn, `O=[N+]([O-])c1cc(C(F)F)c(Nc2ncc(C(F)(F)F)cc2Cl)c([N+](=O)[O-])c1` showed a melting point of 90 °C. In the case of `Cc1c(C)c(C#N)c2ccccc2c1C#N` it was 261 to 264 °C; in that of `Cc1ccc(P(c2ccccc2)c2ccccc2)cc1`, 66 to 68 °C; in that of `Cn1c(=O)c2c(ncn2CCCl)n(C)c1=O`, 122 to 127 °C. As to `Cc1cccc(Br)c1C(=O)O`, the melting point is 109 °C. In turn, `CCCCCCCc1ccc(NC(=O)c2ccc(CC)cc2)cc1` showed a melting point of 102 °C. For the molecule `Nc1cccc(C(F)(F)F)c1Cl`, the melting point is 27 °C. `CCCCC(NC(=O)OCC1c2ccccc2-c2ccccc21)C(=O)O` (configuration not stated) came in with a melting point of 141 °C. With `Cc1nn(C)c(C)c1C(=O)O`, the melting point lay within 218 to 219 °C. The molecule `CC(=C(CCOC(=O)c1ccccc1)SSC(CCOC(=O)c1ccccc1)=C(C)N(C=O)Cc1cnc(C)nc1N)N(C=O)Cc1cnc(C)nc1N` registered a melting point of 146 °C. Take `C=C(C)C=CC(=C)C`: the melting point was -9 °C.

Take `CC(=O)C1(O)C(C)CC2C3CC=C4CC(O)CCC4(C)C3CCC21C` (configuration not stated): the melting point was in the range of 224 to 230 °C.

The molecule `CCC(C)C(CC)C(N)=O` (configuration not stated) returned a melting point of 114 °C. On to `CNC(=O)Oc1cc(C)c(C)c(C)c1`, for which the melting point was 110 °C. For the molecule `O=Cc1sc(Br)c2c1OCCO2`, the melting point was 175 to 176 °C. Molecule `CC(=O)Nc1ccccc1CCN(CCc1ccccc1NC(C)=O)N=O` yielded a melting point of 172 °C. Turning to `CCCCc1cc(C)ccc1O`, the melting point was determined as 19 °C. Then `O=Cc1ccccn1`, with -21 °C; and `N#CO`, with -86 °C. On to `COCC(=O)N(c1c(C)cccc1C)N1CCOC1=O`, for which the melting point was determined as 104 °C.

`CC(=O)c1cc([N+](=O)[O-])c(Br)s1` registered a melting point of 105 to 106 °C. In turn, `Cc1ccc2oc(C(=O)O)cc(=O)c2c1` displayed a melting point of 267 to 270 °C. Take `O=C(O)C1CNC1`: the melting point was in the range of 250 to 292 °C. The molecule `CC=CC=CC` displayed a melting point of -79 °C. For the molecule `O=C(Cl)c1scc2c1OCCO2`, the melting point lay in the range of 75 to 76 °C. The molecule `COc1ccc(F)cc1C#N` showed a melting point of 117 °C. In turn, `CC(=O)Nc1ccccc1C(=O)c1ccccc1` registered a melting point of 88 °C. In the case of `CC(=O)C(=Cc1ccc(-c2cccc([N+](=O)[O-])c2)o1)C(C)=O` it was 153 to 154 °C; in that of `O=C(O)Cn1ccnc1`, 258 to 260 °C.

The molecule `Brc1cccc(Br)c1Oc1ccccc1` registered a melting point of less than 20 °C. In turn, `c1ccc(-c2cccc3cccc(-c4ccccc4)c23)cc1` gave a melting point of 147 °C.

In turn, `COC(=O)c1ccc(O)c(O)c1` had a melting point of 136 °C. `CCOC(=O)c1cccc(N)c1` displayed a melting point of 29 °C. For `COc1cc(C(=O)NN)cc(OC)c1O`, the melting point came to 156 °C. `O=C(Oc1c(F)c(F)c(F)c(F)c1F)Oc1c(F)c(F)c(F)c(F)c1F` returned a melting point of 48 to 51 °C.

`Cn1ccc(-c2ccc(N=C=O)cc2)n1` yielded a melting point of 67 to 70 °C. The molecule `O=C(O)c1ccc(Cl)cc1O` yielded a melting point of 210 °C. As to `CCOC(=O)c1nn(-c2cc(-c3ccc(OC)cc3)n[nH]2)c(=N)c(-c2nc3ccccc3s2)c1C`, the melting point was 175 °C. `O=C1CCCCCC1=O` showed a melting point of -40 °C. On to `BrCc1ccc2nonc2c1`, for which the melting point lay in the range of 77 to 80 °C. As for `COC(=O)CC(=O)c1cccnc1`, the melting point fell in the range of 34 to 42 °C. `O=C(Oc1cccc2c1CCC2=O)c1ccccc1` showed a melting point of 78 to 80 °C. Turning to `O=C(O)CCNC(=O)CCl`, the melting point lay in the range of 91 to 92 °C.

Regarding `Cc1ccc(Br)c(O)c1C(=O)O`, the melting point stood at 57 °C. The molecule `CCCCCCCCCCCCCCCCCCOP1OCC2(CO1)COP(OCCCCCCCCCCCCCCCCCC)OC2` (configuration not stated) gave a melting point of 41.5 °C. `COc1cc(C[N+](=O)[O-])ccc1OCc1ccccc1`: the melting point worked out at 153 °C. In the case of `CCOC(=O)c1ccc(Cl)c([N+](=O)[O-])c1` it was 57 to 61 °C; in that of `O=C1Nc2c(Br)cccc2C1=O`, 199 to 200 °C. Regarding `COc1cccc2cc(C(=O)C3CC(C)(c4ccccc4)C3)oc12` (configuration not stated), the melting point lay in the range of 104 to 105 °C. For `FC(F)(F)c1nn(CN2CCOCC2)c(=S)n1/N=C/c1ccc2c(c1)OCO2`, the melting point is 183 °C. The molecule `CC(=O)N(Nc1ccccc1)c1ccc(N=Nc2ccccc2)cc1` displayed a melting point of 186 °C. For `Cc1c(O)ccc(O)c1C`, the melting point turned out to be 224 °C.

`CC(C)CCCC(C)C1CCC2C3CC=C4CC(Cl)CCC4(C)C3CCC12C` (configuration not stated) registered a melting point of 97 °C. `c1ccc(-c2nc3ccccc3nc2-c2ccc3ccccc3c2)cc1` returned a melting point of 121 to 122 °C.

On to `CC12CCCC1C1CCC3CC4(CCC3(C)C1CC2)OCCO4` (configuration not stated), for which the melting point is 117 °C.

As to `O=C(Cl)c1cc2cc([N+](=O)[O-])ccc2s1`, the melting point lay within 157 to 158 °C. `CC1=C(C(=O)OCc2ccccc2)C(c2ccc(O)c(O)c2)NC(=O)N1` (configuration not stated) had a melting point of 214 to 216 °C. `C=CCNC(N)=S` returned a melting point of 78 °C. In the case of `N#CCNCC#N` it was 77 °C. On to `Cc1onc(-c2ccccc2)c1CBr`, for which the melting point fell in the range of 61 to 63 °C.

`O=Cc1cn(S(=O)(=O)c2ccccc2)c2ccccc12` displayed a melting point of 156 to 157 °C. `O=C(NC(CO)C(=O)O)OCc1ccccc1` (racemic): the melting point was 122 to 126 °C.

In turn, `CC1(C)CC(=O)OC(=O)C1` came in with a melting point of 122 to 126 °C. Regarding `NC(Cc1ccc(O)c(I)c1)C(=O)O` (configuration not stated), the melting point was 205 °C. In the case of `Cc1cc(C)c([N+](=O)[O-])c(C)c1[N+](=O)[O-]`, the melting point was 85.3 °C. `CC(C)C(C)N` (configuration not stated) returned a melting point of -50 °C. `O=C1Nc2ccccc2C1=Nn1c(S)nnc1C(F)(F)F`: the melting point came out at 300 °C.

In the case of `Nc1cc(Cl)c(C(F)(F)F)cc1[N+](=O)[O-]`, the melting point was 113 to 114 °C. In the case of `Clc1ncc(Br)cn1`, the melting point came out at 79 °C. For the molecule `CCOC(=O)C1CCN(c2ccc(C#N)cc2)CC1`, the melting point lay within 67 to 68 °C.

The molecule `O=C(O)c1cc(S(=O)(=O)F)ccc1Cl` yielded a melting point of 148 to 151 °C.

Take `N#CCCn1cc(C(F)(F)F)ccc1=O`: the melting point is 89 to 90 °C. As for `Cc1cc(Cl)c(O)c(Cl)c1`, the melting point was 39 °C.

`COc1cc(OC)c(Cl)cc1N` displayed a melting point of 89 to 92 °C. In the case of `Nc1c(Cl)cc(OC(F)(F)F)cc1Cl` it was 32 °C. Molecule `CCOC(=O)c1ccc2c(c1)nnn2C` showed a melting point of 105 to 108 °C.

Molecule `C=C1C(=O)C23C(OC(C)=O)CC4C5(C)CCCC4(C(O)OC5)C2C(OC(C)=O)CC1C3OC(C)=O` (configuration not stated) gave a melting point of 226 °C. In the case of `Cc1ccc(N)c(C(=O)NN)c1` it was 133 to 134 °C; in that of `CC(C)CC(N)C(=O)Nc1ccc([N+](=O)[O-])cc1` (configuration not stated), 90 °C; in that of `COc1ccccc1C1(C)CCc2oc3ccc(Cl)cc3c2-c2oc(C)cc21` (configuration not stated), 197 to 198 °C. Take `CC(=O)CS(C)(=O)=O`: the melting point is 54 °C. `O=C(C=CC=Cc1ccccc1)C=CC=Cc1ccccc1` registered a melting point of 139 to 144 °C. As to `NCC[C@H](O)C(=O)O`, the melting point is 200 to 203 °C. `O=C(CCC(=O)Oc1ccccc1)Oc1ccccc1` returned a melting point of 121 °C. In the case of `BrCC(Br)C1CCC(Br)C(Br)C1` (configuration not stated) it was 70 °C. The molecule `C1CCC(P(CP(C2CCCCC2)C2CCCCC2)C2CCCCC2)CC1` came in with a melting point of 99 °C.

`CCCCc1cc2c(O)c(C(=O)OC)cnc2cc1OCc1ccccc1` showed a melting point of 288 °C. `C=Cc1cccc(C=C)c1` returned a melting point of -52.3 °C. On to `Cn1cncc1C(=O)O`, for which the melting point was in the range of 247 to 248 °C.

`CCCCCCCCCCCCCCCN` yielded a melting point of 37.3 °C.

In turn, `O=C(O)c1ccc(N2CCOCC2)nc1` returned a melting point of 256 to 257 °C. As to `COc1ccc(CCO)cc1OC`, the melting point worked out at 46 °C. For `S=C=Nc1ccccc1N=C=S`, the melting point was 56 to 58 °C.

Take `CN1C(=O)CCS(=O)(=O)C1c1ccc(Cl)cc1` (configuration not stated): the melting point worked out at 116 °C.

Molecule `CC1(C)CC(C(N)=O)C(C)(C)N1` (configuration not stated) showed a melting point of 129 to 131 °C.

`O=C(O)c1scc2c1CCCC2`: the melting point is 203 to 205 °C. `O=C(NCc1ccccc1)OCCO`: the melting point came out at 40 °C.

As for `CSc1ccc(S)cc1`, the melting point was 13 °C. In turn, `O=C(CBr)c1cccc(F)c1` returned a melting point of 34 to 35 °C. `Nc1ccc(N)nc1` had a melting point of 110 °C. Then `CCCCCCCCCCCCCCC(=O)OC`, with 18.5 °C; and `COc1cc(C=C(C)[N+](=O)[O-])cc(OC)c1`, with 87 to 89 °C; and `O=Cc1c(F)ccc(F)c1Cl`, with 47 °C. For `CC(C)(C)N(NC(=O)c1ccccc1)C(=O)c1ccccc1I`, the melting point was 188 °C. With `Cc1cc(Br)cc(C)c1N=C=S`, the melting point was 79.5 °C.
